The text below walks through data of ChEMBL document CHEMBL5303573, “Mapping human microbiome drug metabolism by gut bacteria and their genes” (Nature, 2019).

Data set [1] in a line: The drug is tested on Bacteroides ovatus strain: ATCC8483 for biotransformation. The drug concentrations were measured before and after a 12-h incubation by liquid-chromatography-coupled mass spectrometry (LC–MS). The settings on record: 2 µM.
For data set [2] the following is noted: roseburia intestinalis, 12 h, 2 µM.
Description: The drug is tested on Roseburia intestinalis strain: L1-82 for biotransformation. The drug concentrations were measured before and after a 12-h incubation by liquid-chromatography-coupled mass spectrometry (LC–MS)
Data set [3] in a line: The drug is tested on Escherichia coli strain: BW25113 for biotransformation. The drug concentrations were measured before and after a 12-h incubation by liquid-chromatography-coupled mass spectrometry (LC–MS). As to conditions: 2 µM.
The conditions of data set [4]: bifidobacterium adolescentis, 12 h, 2 µM.
Description: The drug is tested on Bifidobacterium adolescentis strain: ATCC 15703 for biotransformation. The drug concentrations were measured before and after a 12-h incubation by liquid-chromatography-coupled mass spectrometry (LC–MS)
Data set [5] in a line: The drug is tested on Blautia hansenii strain: DSM20583 for biotransformation. The drug concentrations were measured before and after a 12-h incubation by liquid-chromatography-coupled mass spectrometry (LC–MS). As to conditions: 2 µM.
Data set [6] can be described thus: The drug is tested on Enterococcus faecalis strain: V583 for biotransformation. The drug concentrations were measured before and after a 12-h incubation by liquid-chromatography-coupled mass spectrometry (LC–MS). The settings on record: 2 µM.
A short description of data set [7]: The drug is tested on Bacteroides fragilis strain: ATCC43859 for biotransformation. The drug concentrations were measured before and after a 12-h incubation by liquid-chromatography-coupled mass spectrometry (LC–MS). The settings on record: 2 µM.
Data set [8] in a line: The drug is tested on Subdoligranulum variabile strain: DSM15176 for biotransformation. The drug concentrations were measured before and after a 12-h incubation by liquid-chromatography-coupled mass spectrometry (LC–MS). As to conditions: 2 µM.
Data set [9] is described as follows: The drug is tested on Clostridium sp. strain: fecal isolate for biotransformation. The drug concentrations were measured before and after a 12-h incubation by liquid-chromatography-coupled mass spectrometry (LC–MS). As to conditions: 2 µM.
For data set [10] the following is noted: segatella copri, 12 h, 2 µM.
Description: The drug is tested on Prevotella copri strain: DSM18205 for biotransformation. The drug concentrations were measured before and after a 12-h incubation by liquid-chromatography-coupled mass spectrometry (LC–MS)
Data set [11] can be described thus: The drug is tested on Eubacterium ventriosum strain: ATCC27560 for biotransformation. The drug concentrations were measured before and after a 12-h incubation by liquid-chromatography-coupled mass spectrometry (LC–MS). It is filed as ADME. Set-up: dose 2 uM, timepoint 0 vs 12 hours. As to conditions: 2 µM.
For data set [12] the following is noted: bacteroides fragilis, 12 h, 2 µM.
Description: The drug is tested on Bacteroides fragilis strain: 3397 (T10) for biotransformation. The drug concentrations were measured before and after a 12-h incubation by liquid-chromatography-coupled mass spectrometry (LC–MS)
The nature of data set [13]: The drug is tested on Bacteroides uniformis strain: ATCC8492 for biotransformation. The drug concentrations were measured before and after a 12-h incubation by liquid-chromatography-coupled mass spectrometry (LC–MS). As to conditions: 2 µM.
Data set [14] is described as follows: The drug is tested on Bifidobacterium breve strain: DSM20213 for biotransformation. The drug concentrations were measured before and after a 12-h incubation by liquid-chromatography-coupled mass spectrometry (LC–MS). As to conditions: 2 µM.
The nature of data set [15]: The drug is tested on Bacteroides coprophilus strain: DSM18228 for biotransformation. The drug concentrations were measured before and after a 12-h incubation by liquid-chromatography-coupled mass spectrometry (LC–MS). As to conditions: 2 µM.
Data set [16] is described as follows: The drug is tested on Eubacterium hallii strain: DSM3353 for biotransformation. The drug concentrations were measured before and after a 12-h incubation by liquid-chromatography-coupled mass spectrometry (LC–MS). As to conditions: anaerobutyricum hallii, 2 µM.
Data set [17] is described as follows: The drug is tested on Clostridium sporogenes strain: ATCC15579 for biotransformation. The drug concentrations were measured before and after a 12-h incubation by liquid-chromatography-coupled mass spectrometry (LC–MS). As to conditions: 2 µM.
For data set [18] the following is noted: akkermansia muciniphila, 12 h, 2 µM.
Description: The drug is tested on Akkermansia muciniphila strain: ATCC BAA-835 for biotransformation. The drug concentrations were measured before and after a 12-h incubation by liquid-chromatography-coupled mass spectrometry (LC–MS)
Data set [19] in a line: The drug is tested on Odoribacter splanchnicus strain: fecal isolate for biotransformation. The drug concentrations were measured before and after a 12-h incubation by liquid-chromatography-coupled mass spectrometry (LC–MS). As to conditions: 2 µM.
For data set [20] the following is noted: limosilactobacillus reuteri cf48-3a, 12 h, 2 µM.
Description: The drug is tested on Lactobacillus reuteri CF48-3A strain: BEI HM-102 for biotransformation. The drug concentrations were measured before and after a 12-h incubation by liquid-chromatography-coupled mass spectrometry (LC–MS)

On to `C#C[C@]1(OC(C)=O)CC[C@H]2[C@@H]3CCC4=C/C(=N/O)CC[C@@H]4[C@H]3CC[C@@]21CC` [NORGESTIMATE], for which the “Bacterial Biotransformation” value in data set [1] is “Compound NOT metabolized”; in data set [2], “Compound NOT metabolized”; in [3] it was “Compound NOT metabolized”; in data set [4], “Compound NOT metabolized”; in data set [5] it was “Compound metabolized”; in data set [6] it was “Compound NOT metabolized”. The “Bacterial Biotransformation” value in data set [7] is given as “Compound NOT metabolized”; in [8], “Compound NOT metabolized”; in data set [9], “Compound metabolized”; in [10], “Compound NOT metabolized”; in data set [11], “Compound NOT metabolized”; in data set [12] it was “Compound NOT metabolized”. The “Bacterial Biotransformation” value in data set [13] is recorded as “Compound metabolized”; in data set [14] it was “Compound NOT metabolized”; in [15] it was “Compound NOT metabolized”; in data set [16] it was “Compound NOT metabolized”.
As for `Nc1nc(N)nc(-c2cc(Cl)ccc2Cl)n1.O=C(O)/C=C\C(=O)O` [IRSOGLADINE MALEATE], the “Bacterial Biotransformation” value in data set [1], in data set [2], in data set [4], in data set [5], in data set [6] and in data set [17] was “Compound NOT metabolized” in each case. For the same compound, the “Bacterial Biotransformation” value in data set [7], in data set [8], in [9], in data set [10], in data set [11] and in data set [12] was “Compound NOT metabolized” in each case. Besides, the “Bacterial Biotransformation” value in data set [13], in data set [14], in [18], in data set [15], in [19] and in [16] was “Compound NOT metabolized” each time.
Consider `Cc1ccnc2c1NC(=O)c1cccnc1N2C1CC1` [NEVIRAPINE], for which the “Bacterial Biotransformation” value is on record as “Compound NOT metabolized” in data set [1]; “Compound NOT metabolized” in data set [2]; “Compound NOT metabolized” in [4]; “Compound metabolized” in data set [5]; “Compound NOT metabolized” in data set [6]; “Compound NOT metabolized” in [17]. Also, the “Bacterial Biotransformation” value in [7] was “Compound NOT metabolized”; in data set [8], “Compound NOT metabolized”; in data set [9], “Compound metabolized”; in data set [10], “Compound NOT metabolized”; in [11], “Compound NOT metabolized”; in data set [14], “Compound NOT metabolized”. The “Bacterial Biotransformation” value in data set [20], in data set [18], in data set [15] and in data set [16] was “Compound NOT metabolized” each time.
As for `O=C(O)CCc1nc(-c2ccccc2)c(-c2ccccc2)o1` [OXAPROZIN], the “Bacterial Biotransformation” value in data set [1] is on record as “Compound NOT metabolized”; in data set [4] it was “Compound NOT metabolized”; in [5], “Compound metabolized”; in data set [6], “Compound NOT metabolized”; in data set [17] it was “Compound NOT metabolized”; in [7], “Compound metabolized”. Moreover, the “Bacterial Biotransformation” value in data set [8] was “Compound NOT metabolized”; in [9], “Compound NOT metabolized”; in data set [10], “Compound NOT metabolized”; in data set [11], “Compound NOT metabolized”; in [13], “Compound metabolized”; in [14], “Compound NOT metabolized”. In addition, the “Bacterial Biotransformation” value in data set [20] is “Compound NOT metabolized”; in [15], “Compound NOT metabolized”; in data set [19] it was “Compound metabolized”; in data set [16] it was “Compound NOT metabolized”.
In the case of `CN1CCC(=C2c3ccccc3CC(=O)c3sccc32)CC1.O=C(O)/C=C/C(=O)O` [KETOTIFEN FUMARATE], the “Bacterial Biotransformation” value in data set [1], in data set [2], in data set [4], in data set [5], in [6] and in data set [17] was “Compound NOT metabolized” throughout. The “Bacterial Biotransformation” value in [7], in data set [8], in data set [9], in [10], in data set [11] and in [12] was “Compound NOT metabolized” each time. Further, the “Bacterial Biotransformation” value in data set [13], in [14], in data set [20], in data set [18], in data set [15] and in [19] was “Compound NOT metabolized” in each case. Also, the “Bacterial Biotransformation” value in data set [16] is recorded as “Compound NOT metabolized”.
Consider `CN1CCC(OC(c2ccccc2)c2ccccc2)CC1`, for which the “Bacterial Biotransformation” value in data set [1], in [2], in data set [3], in data set [4], in data set [5] and in data set [6] was “Compound NOT metabolized” throughout. In addition, the “Bacterial Biotransformation” value in [17], in data set [7], in [8], in data set [10], in [11] and in [12] was “Compound NOT metabolized” throughout. For the same compound, the “Bacterial Biotransformation” value in [13], in [14], in data set [20], in data set [15], in data set [19] and in data set [16] was “Compound NOT metabolized” throughout.
Take `OCCN1CCN(CCCN2c3ccccc3Sc3ccc(C(F)(F)F)cc32)CC1` [FLUPHENAZINE]: the “Bacterial Biotransformation” value in data set [1] is “Compound NOT metabolized”; in [2] it was “Compound metabolized”; in [3], “Compound metabolized”; in data set [4] it was “Compound NOT metabolized”; in [5], “Compound NOT metabolized”; in data set [6], “Compound NOT metabolized”. The “Bacterial Biotransformation” value is reported as “Compound NOT metabolized” in [17]; “Compound NOT metabolized” in data set [7]; “Compound NOT metabolized” in [8]; “Compound metabolized” in data set [10]; “Compound metabolized” in [11]; “Compound metabolized” in [12]. Also, the “Bacterial Biotransformation” value was “Compound metabolized” in [13]; “Compound NOT metabolized” in data set [14]; “Compound metabolized” in data set [20]; “Compound NOT metabolized” in data set [18]; “Compound NOT metabolized” in [15]; “Compound metabolized” in [16].
